Experimental data: PubChem BioAssay AID1645868 (Buhrlage Lab, Dana-Farber Cancer Institute and Novartis …, 2021)
The source made the active and inactive calls.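 The calls were made as follows: active = maximal percent inhibition of the deubiquitinase OTUD3 of at least 30% across the tested doses; inactive = the rest.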

Target: OTU domain-containing protein 3 (Homo sapiens) (UniProt Q5T2D3)
Assay: Validation of screening hits, potency titration, in vitro enzymatic, OTU domain-containing protein 3 DUB inhibitors (AID 1645868)
Conditions: purified OTUD3, ubiquitin-rhodamine cleavage fluorescence, 2 h

Chain of OTU domain-containing protein 3 (Homo sapiens) (Q5T2D3 whole entry, looked up, the tested form may be a part): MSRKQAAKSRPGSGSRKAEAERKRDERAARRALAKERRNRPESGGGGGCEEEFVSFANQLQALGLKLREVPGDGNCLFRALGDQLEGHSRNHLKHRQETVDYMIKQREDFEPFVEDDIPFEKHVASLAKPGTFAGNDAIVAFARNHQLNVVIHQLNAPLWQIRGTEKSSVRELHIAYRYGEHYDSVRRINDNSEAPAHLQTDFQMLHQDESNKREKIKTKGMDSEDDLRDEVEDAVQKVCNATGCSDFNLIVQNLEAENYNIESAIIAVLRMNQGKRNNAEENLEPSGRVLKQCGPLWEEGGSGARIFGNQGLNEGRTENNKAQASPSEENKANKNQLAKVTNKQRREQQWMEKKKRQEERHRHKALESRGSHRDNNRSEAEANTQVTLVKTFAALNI

| SMILES | IC50 |
| --- | --- |
| O=C(c1ccc(N2CCc3ccccc32)nn1)N1CCc2ccccc21 | > 50 µM (inactive) |
| Cc1ccc(NC(=O)c2cc(=O)n(C)c3c2c(=O)n(C)c(=O)n3C)c(C)c1 | > 50 µM (inactive) |
| COc1ccc(-c2nc3n(n2)C(CC(=O)Nc2cccc4ccccc24)C(=O)N3)cc1 (stereo not given) | 13 µM |
| O=C(NCc1ccncc1)C1CCN(c2cncnc2N2CCCCC2)CC1 | > 50 µM (inactive) |
| COc1ccc(C(=O)Nc2n[nH]c(C)c2-c2cccc(C)c2)c(OC)c1 | 28.7 µM |
| O=S1(=O)CCN(Cc2c(F)cccc2F)c2c(F)nc(N3CCOCC3)c(F)c21 | > 50 µM (inactive) |
| Cc1ccccc1N1C(=O)/C(=C\c2cccn2C)c2ccccc2C1=O | > 50 µM (inactive) |
| O=C(CSc1ncnc2c1oc1ccccc12)Nc1ccc2c(c1)OCCO2 | 34.5 µM |
| COc1ccccc1NS(=O)(=O)c1cccc(NC(=O)CCc2nc3ccccc3s2)c1 | > 50 µM (inactive) |
| Cc1nnc(NCc2cccnc2)c2c1nnn2Cc1ccccc1Cl | > 50 µM (inactive) |
| O=C(O)COc1ccccc1/C=C1\CCc2c1nc1ccccc1c2C(=O)O | > 50 µM (inactive) |
| Cc1cc(O)c(=O)cc2c1C[C@H]1CC(C)(C)/C=C/C[C@@]3(C)Oc4cc(=O)c(O)cc(C)c4C[C@@H]3C[C@H](O)[C@]1(C)O2 | > 50 µM (inactive) |
| COC(=O)c1cc(C)sc1NC(=O)c1cccc(OC)c1OC | > 50 µM (inactive) |
| CCN1CCN(C(=O)CCCN(c2ccccc2)S(C)(=O)=O)CC1 | > 50 µM (inactive) |
| COCCNC(=O)c1ccnn1-c1ccc2ccc(-c3cccnc3)cn12 | > 50 µM (inactive) |
| Cc1c(C)n(-c2ccc(Br)cn2)c2ncnc(NCCCO)c12 | > 50 µM (inactive) |
| Cc1cc(-c2nnc(SCC(=O)Nc3ccc(Br)c(C)c3)n2N)n[nH]1 | 17.3 µM |
| O=C(Nc1cccc2ccccc12)C1CCCN(S(=O)(=O)Cc2ccccc2)C1 (stereo not given) | 40.5 µM |
| Cc1ccc(Nc2nc(O)c(CC(=O)Nc3ccccc3C)s2)cc1C | 20 µM |
| CC(=O)N1CCOc2cc(S(=O)(=O)N3CCCC3c3cc(C)no3)ccc21 (stereo not given) | > 50 µM (inactive) |
| CC(=O)c1ccc(Cc2ncc(C(F)(F)F)cc2Cl)s1 | > 50 µM (inactive) |
| COc1cc(OC)cc(C(=O)Nc2cnc(-c3ccccc3)nc2)c1 | > 50 µM (inactive) |
| Cc1csc2ncc(C(=O)N3CCN(c4ccccc4F)CC3)c(=O)n12 | > 50 µM (inactive) |
| Cc1ccc2nc(CNc3ccc(F)cc3C)cc(=O)n2c1 | > 50 µM (inactive) |

| SMILES | IC50 |
| --- | --- |
| Cc1ccc(Cn2nnc(C(=O)NCc3ccco3)c2-n2cccc2)cc1 | > 50 µM (inactive) |
| O=C1C=C(O)c2c(O)cccc2C1=O | 25.5 µM |
| Cc1cc(Cl)c2c(c1)[C@]1(C(=O)N2)N2CCC[C@H]2[C@@H](C(=O)c2cc3ccccc3o2)[C@]12C(=O)Nc1ccccc12 | > 50 µM (inactive) |
| COc1ccc2nc(Nc3ncc4c(n3)CCCC4=O)nc(C)c2c1 | > 50 µM (inactive) |
| Cc1c(-c2ccc(C#N)cc2)oc2ccc(Br)cc2c1=O | > 50 µM (inactive) |
| COCCCn1c(C(=O)NCCc2ccccc2)cc2c(=O)n3cccc(C)c3nc21 | > 50 µM (inactive) |
| Cc1ccc2c(c1C)NC(=O)[C@]21[C@@H]2C(=O)N(c3cc(Cl)ccc3Cl)C(=O)[C@@H]2[C@@H]2CCCN21 | > 50 µM (inactive) |
| O=C1COc2ccc(NC(=O)c3cnn(Cc4ccccc4)c3)cc2N1 | > 50 µM (inactive) |
| O=C1N(Cc2ccc(F)cc2)CCN1c1ccc(C(F)(F)F)cn1 | > 50 µM (inactive) |
| CC(C)CC1NC(=O)C2CCCN2C1=O (stereo not given) | > 50 µM (inactive) |
| COc1ccc(NCc2nc3ccccc3n2Cc2ccccc2)cc1 | > 50 µM (inactive) |
| O=C(NCc1ccco1)c1ccc2c(c1)N(Cc1cccc(F)c1)C(=O)c1ccccc1S2 | > 50 µM (inactive) |
| O=C(NC1CCN(c2nc(-c3cccnc3)nc3ccccc23)CC1)c1cccnc1 | > 50 µM (inactive) |
| COc1ccc(-c2nc(Cn3nnc(C(=O)Nc4ccc(C)c(C)c4)c3N)c(C)o2)cc1 | 3.46 µM |
| COc1ccc(CCNC(=O)[C@H](CCSC)NC(=O)N2CCn3c2nc2ccccc23)cc1OC | > 50 µM (inactive) |
| O=C(Nc1ccc2c(c1)OCCO2)C1CCC(Cn2cnc3ccccc3c2=O)CC1 (stereo not given) | > 50 µM (inactive) |
| C/C=C(\Cl)C1=CC(=O)[C@]23C[C@H]2[C@@]2(C)CO[C@@]1(O)[C@@]3(O)O2 | > 50 µM (inactive) |
| c1ccc(-n2nnc(-c3noc(-c4cccnc4)n3)c2-c2ccncc2)cc1 | 24 µM |
| CN(Cc1ccccc1)S(=O)(=O)c1ccc2[nH]cc(C(=O)NCc3cccs3)c(=O)c2c1 | 3.15 µM |
| O=C(Cn1c(=O)n(CCC(=O)N2CC=C(c3ccccc3)CC2)c(=O)c2ccccc21)NCc1ccco1 | > 50 µM (inactive) |
| COC(=O)C1C(c2ccc(OC)cc2)C2(C(=O)c3ccccc3C2=O)C2C=Cc3ccccc3N12 (stereo not given) | > 50 µM (inactive) |
| CC(C)CC(NC(=O)c1ccc(Cl)cc1Cl)c1nc2ccccc2[nH]1 (stereo not given) | > 50 µM (inactive) |
| O=S(=O)(c1ccc2c(c1)OCCO2)N(Cc1ccccc1)Cc1nnc(-c2ccccc2)o1 | > 50 µM (inactive) |
| Cc1cccc(N2C(=O)/C(=C\c3ccc4c(c3)OCCO4)c3ccccc3C2=O)c1 | > 50 µM (inactive) |

| SMILES | IC50 |
| --- | --- |
| O=S1(=O)CCN(Cc2cccnc2)c2c(F)nc(N3CCOCC3)c(F)c21 | > 50 µM (inactive) |
| CCOc1cccc2sc(N(Cc3cccnc3)C(=O)CCc3ccccc3)nc12 | > 50 µM (inactive) |
| CSc1ccccc1C(=O)Nc1nc(-c2ccncc2)cs1 | 46.3 µM |
| COc1cccc(CC(=O)Nc2cc(F)c3nc(N4CCOCC4)ccc3c2)c1 | > 50 µM (inactive) |
| COc1cccc2c1C(=O)c1ccc3c(c1C2=O)C(=O)CC(C)(O)C3 (stereo not given) | > 50 µM (inactive) |
| O=C(COc1nc2ccccc2nc1N1CCOCC1)NC(c1ccccc1)c1ccccc1 | > 50 µM (inactive) |
| CCN1C(=O)COc2ccc(NC(=O)c3ccc(OCc4nonc4C)cc3)cc21 | > 50 µM (inactive) |
| O=C1CC(NS(=O)(=O)c2ccc3ccccc3c2)CN1c1cccc(F)c1 (stereo not given) | > 50 µM (inactive) |
| CCOc1ccc2c(c1)c(=O)c(C(=O)c1ccc(C)cc1)cn2CC(=O)Nc1ccc(OC)cc1 | > 50 µM (inactive) |
| COc1c2nc3ccccc3oc-2cc(=O)c1OC | > 50 µM (inactive) |
| O=C(CSc1nncc2ccccc12)Nc1ccc2c(c1)OCO2 | > 50 µM (inactive) |
| Cc1cc(=O)n(CC(=O)NCc2ccccc2F)c2c1c(C)nn2-c1ccccc1 | 28.6 µM |
| COc1cccc(NC(=O)c2ccc(-c3csc(C)n3)cc2)c1 | > 50 µM (inactive) |
| CCC(C)c1ccc(-c2csc(Cn3c(CN4CCN(C)CC4)nc4ccccc4c3=O)n2)cc1 (stereo not given) | 31.8 µM |
| COc1cc(-c2cc(C(=O)Nc3cc(C)[nH]n3)c3ccccc3n2)cc(OC)c1OC | > 50 µM (inactive) |
| N#Cc1ccccc1Cn1c(=O)n(CCCCC(=O)NCc2ccco2)c(=O)c2ccccc21 | 43.5 µM |
| CC(=O)Nc1cc2cc(-n3cccc3)ccc2oc1=O | > 50 µM (inactive) |
| CCn1c(=O)c2ccccc2n(Cc2nc(-c3ccccc3OC)no2)c1=O | > 50 µM (inactive) |
| COc1ccc(NS(=O)(=O)c2cc(NC(=O)CCc3nc4ccccc4s3)ccc2C)cc1 | 31.7 µM |
| COc1ccc(C(=O)Nc2cc(F)c3nc(N4CCOCC4)ccc3c2)c(OC)c1 | > 50 µM (inactive) |
| Cn1c(=O)cc(SCC(=O)NC2CCN(Cc3ccccc3)CC2)c2ccc(Cl)cc21 | > 50 µM (inactive) |
| Cn1c(COc2ccccc2)nnc1SCC(=O)Nc1ccc(N2CCOCC2)cc1 | 22.5 µM |
| COc1ccc(-c2nc(SCC(=O)Nc3ccc(Cl)cc3F)n[nH]2)cc1 | > 50 µM (inactive) |
| CNC(=O)c1cc2nc(N(C)C)n(-c3ccc(F)cc3)c2s1 | > 50 µM (inactive) |

| SMILES | IC50 |
| --- | --- |
| CC(C)c1nc2sc3c(N(CCO)CCO)ncnc3c2c2c1COC(C)(C)C2 | > 50 µM (inactive) |
| O=C(c1ccco1)N1CCN=C1SCc1ccccc1F | > 50 µM (inactive) |
| CC(C)CCN1C(=O)C2C(C(=O)Nc3ccc(Oc4ccccc4)cc3)C3C=CC2(O3)C1C(=O)NC1CCCCC1 (stereo not given) | 30.7 µM |
| NS(=O)(=O)c1ccc(Cl)c(C(=O)OCc2csc(Nc3ccccc3)n2)c1 | > 50 µM (inactive) |
| Cc1cc(Nc2ccc(C(=O)NCc3ccco3)cc2)n2nc(-c3cccnc3)nc2n1 | 37.1 µM |
| CCOc1ccccc1-c1nc(-c2nnn(Cc3ccccc3)c2C)no1 | > 50 µM (inactive) |
| Cc1ccc(C2c3c(-c4ccccc4O)n[nH]c3C(=O)N2Cc2ccco2)cc1 (stereo not given) | 30.4 µM |
| Cc1cnc2nc3c(cc2c1)CN(S(=O)(=O)c1cc(F)ccc1C)CC3 | > 50 µM (inactive) |
| Cc1ccc(C(=O)Nc2cc3c4c(c2)CC(=O)N4CCC3)cc1 | > 50 µM (inactive) |
| Cc1nc(-c2ccc(C(=O)NCc3ccc(F)cc3)cc2)cs1 | > 50 µM (inactive) |
| CCOC(=O)C1C(c2ccc(Br)cc2)C2(C(=O)c3ccccc3C2=O)C2C=Cc3ccccc3N12 (stereo not given) | > 50 µM (inactive) |
| CC1=C2C(=NCCN1)C(=O)N(c1ccccc1)C2c1cccnc1 (stereo not given) | > 50 µM (inactive) |
| COc1ccc(NC(=O)c2ccccc2OCC(=O)Nc2ccccc2C(F)(F)F)c(C)c1 | 29.8 µM |
| COc1ccc(-n2nnc(C(=O)Nc3ccccc3)c2N)cc1 | > 50 µM (inactive) |
| COc1ccc(NC(=O)Nc2cccc(-c3nnc(-c4ccccc4)o3)c2)cc1OC | 39.3 µM |
| O=C(/C=C/c1ccc2c(c1)OCO2)Nc1nc2c(s1)COCC2 | > 50 µM (inactive) |
| CCC/C=C\C#CC/C=C\CCCCCCCC(=O)O | 1.37 µM |
| CCS(=O)(=O)c1ccccc1C(=O)Nc1ccc2sc(C)nc2c1 | > 50 µM (inactive) |
| O=C(NC(Cc1ccccc1)c1nc2ccccc2[nH]1)c1ccccn1 (stereo not given) | > 50 µM (inactive) |
| Cc1nn(C)c2c1[C@@H](c1ccc(F)c(Br)c1)[C@H](NC(=O)c1ccccc1)C(=O)N2 | > 50 µM (inactive) |
| COc1ccc(/C=C/C(=O)N2CCc3ccccc32)cc1S(=O)(=O)N1CCOCC1 | > 50 µM (inactive) |
| COc1ccccc1N1CCN(C(=O)c2ccc3c(c2)N(Cc2cc(C)ccc2C)C(=O)c2ccccc2S3=O)CC1 (stereo not given) | > 50 µM (inactive) |
| Cc1cc(-n2c(C)cc(-c3csc(N)n3)c2C)no1 | > 50 µM (inactive) |
